Experimental data published in ChEMBL document CHEMBL1201862, “PubChem BioAssay data set” (2004).
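Values below derive from 48-hour exposures of cells grown in 96-well plates, with endpoints linearly interpolated between the two concentrations bracketing the appropriate inhibition level. At the GI50, growth is halved.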 Calls of active or inactive are those of the source. Cut-off read from the data, not from the text of the source: active = GI50 up to about 1.1 µM and inactive = higher.

Legend:
Assay in all cases: DTP human tumour cell line panel, 48 h
[1] = system: ACHN
[2] = system: HT-29
[3] = system: U-251
[4] = system: SNB-19
[5] = system: DU-145
[6] = system: UACC-257
[7] = system: SF-295
[8] = system: SF-539
[9] = system: Malme-3M
[10] = system: OVCAR-5
[11] = system: UACC-62
[12] = system: SN12C
[13] = system: PC-3
[14] = system: KM12
[15] = system: 786-0
[16] = system: NCI-H23
[17] = system: NCI-H522
[18] = system: EKVX
[19] = system: SK-MEL-2

| SMILES | GI50 [1] | GI50 [2] | GI50 [3] | GI50 [4] | GI50 [5] | GI50 [6] | GI50 [7] | GI50 [8] | GI50 [9] | GI50 [10] | GI50 [11] | GI50 [12] | GI50 [13] | GI50 [14] | GI50 [15] | GI50 [16] | GI50 [17] | GI50 [18] | GI50 [19] |
| --- | --- | --- | --- | --- | --- | --- | --- | --- | --- | --- | --- | --- | --- | --- | --- | --- | --- | --- | --- |
| O=C1C(Cl)=C(Sc2nnc3c4ccccc4c4ccccc4c3n2)C(=O)c2ccccc21 | 15.7 µM (inactive) | 25.1 µM (inactive) | 13.3 µM (inactive) | 18.7 µM (inactive) | 8.81 µM (inactive) | 16.3 µM (inactive) | 10.8 µM (inactive) | 16.1 µM (inactive) | 3.26 µM (inactive) | 23.2 µM (inactive) | 15.8 µM (inactive) | 16.6 µM (inactive) | 19 µM (inactive) | 14.8 µM (inactive) | 16.4 µM (inactive) | 5 µM (inactive) | 15.2 µM (inactive) | 17.6 µM (inactive) | 16.6 µM (inactive) |
| CCc1c(O)c2c(c(O)c1C(C)=O)C(=O)c1c(cc(O)c(C(=O)O)c1C(=O)O)C2=O | > 100 µM (inactive) | > 100 µM (inactive) | > 100 µM (inactive) | > 100 µM (inactive) | > 100 µM (inactive) | > 100 µM (inactive) | > 100 µM (inactive) | > 100 µM (inactive) | > 100 µM (inactive) | > 100 µM (inactive) | > 100 µM (inactive) | > 100 µM (inactive) | > 100 µM (inactive) | > 100 µM (inactive) | > 100 µM (inactive) | > 100 µM (inactive) | > 100 µM (inactive) | > 100 µM (inactive) | > 100 µM (inactive) |
| Oc1nc(S)nc2c1CN(CCCN1CCOCC1)CN2 | 29.2 µM (inactive) | 35.9 µM (inactive) | 33.5 µM (inactive) | > 100 µM (inactive) | 34.2 µM (inactive) | 40.2 µM (inactive) | 28.2 µM (inactive) | 25.5 µM (inactive) | 19.7 µM (inactive) | > 100 µM (inactive) | 19.7 µM (inactive) | 46.7 µM (inactive) | 22.1 µM (inactive) | 28.2 µM (inactive) | 40.4 µM (inactive) | 22.4 µM (inactive) | 21.2 µM (inactive) | > 100 µM (inactive) | 19.9 µM (inactive) |
| CCN1C/C(=C\c2cc(OC)c(OC)c(OC)c2)C2=NN(c3ccccc3)C(c3cc(OC)c(OC)c(OC)c3)C2C1 (stereo unspecified) | 9.33 µM (inactive) | 2.07 µM (inactive) | 0.652 µM (active) | 1.97 µM (inactive) | 2.99 µM (inactive) | 3.35 µM (inactive) | 2.54 µM (inactive) | 0.535 µM (active) | 0.203 µM (active) | 2.84 µM (inactive) | 20.1 µM (inactive) | 2.47 µM (inactive) | 1.08 µM (active) | 4.34 µM (inactive) | 0.398 µM (active) | 3.56 µM (inactive) | 1.13 µM (inactive) | 2.09 µM (inactive) | 6.84 µM (inactive) |
| CC1CC[C@@]2(OC1)O[C@H]1C[C@H]3[C@@H]4CC[C@H]5C[C@@H](OC6OC(CO)C(OC7OC(CO)C(OC8OC(CO)C(O)C(OC9OC(C)C(OC%10OC(C)C(O)C(O)C%10O)C(O)C9O)C8OC8OCC(O)C(O)C8O)C(O)C7O)C(O)C6O)CC[C@]5(C)[C@H]4CC(=O)[C@]3(C)[C@H]1[C@@H]2C (stereo partly specified) | 17.2 µM (inactive) | 36 µM (inactive) | 18.7 µM (inactive) | 20.5 µM (inactive) | 19.9 µM (inactive) | 18.2 µM (inactive) | 23.9 µM (inactive) | 14.8 µM (inactive) | 22.4 µM (inactive) | 20.8 µM (inactive) | 18.8 µM (inactive) | 20.9 µM (inactive) | 16.7 µM (inactive) | 18.2 µM (inactive) | 22.4 µM (inactive) | 20.5 µM (inactive) | 23.7 µM (inactive) | 22.1 µM (inactive) | 16.1 µM (inactive) |
| COc1cccc2c(Nc3ccc(S(=O)(=O)Nc4ncccn4)cc3)c3ccc([N+](=O)[O-])cc3nc12 | 7.06 µM (inactive) | 57.4 µM (inactive) | 48.5 µM (inactive) | > 100 µM (inactive) | 19.5 µM (inactive) | > 100 µM (inactive) | > 100 µM (inactive) | 37.8 µM (inactive) | 12.9 µM (inactive) | > 100 µM (inactive) | 9.12 µM (inactive) | 92.7 µM (inactive) | 40.6 µM (inactive) | 12.5 µM (inactive) | 23.6 µM (inactive) | 72.1 µM (inactive) | 66.1 µM (inactive) | > 100 µM (inactive) | 89.9 µM (inactive) |
| O=C(CC(Cc1ccccc1)c1ccc(Oc2ccccc2)cc1)Nc1cccc(Cl)c1 (stereo unspecified) | 3.65 µM (inactive) | 5.79 µM (inactive) | 3.95 µM (inactive) | 4.5 µM (inactive) | 5.43 µM (inactive) | 11 µM (inactive) | 3.24 µM (inactive) | 26.1 µM (inactive) | 15 µM (inactive) | 28.6 µM (inactive) | 3.04 µM (inactive) | 4.22 µM (inactive) | 3.7 µM (inactive) | 3.29 µM (inactive) | 5.43 µM (inactive) | 3.35 µM (inactive) | 3.1 µM (inactive) | 4.4 µM (inactive) | 3.56 µM (inactive) |
| CC(C)C(=O)/C=C/c1c(Cl)cccc1Cl | 4.74 µM (inactive) | 2.84 µM (inactive) | 3.82 µM (inactive) | 10.8 µM (inactive) | 3.51 µM (inactive) | 7.41 µM (inactive) | 11.6 µM (inactive) | 3.04 µM (inactive) | 4.45 µM (inactive) | 3.21 µM (inactive) | 6.35 µM (inactive) | 2.71 µM (inactive) | 11.5 µM (inactive) | 2.85 µM (inactive) | 7.74 µM (inactive) | 2.33 µM (inactive) | 1.19 µM (inactive) | 13.3 µM (inactive) | 2.25 µM (inactive) |
| CCOC(=O)/C(C#N)=C/N(CC)/N=C/c1ccccc1 | > 100 µM (inactive) | > 100 µM (inactive) | > 100 µM (inactive) | > 100 µM (inactive) | > 100 µM (inactive) | > 100 µM (inactive) | 69.8 µM (inactive) | 54.7 µM (inactive) | > 100 µM (inactive) | > 100 µM (inactive) | > 100 µM (inactive) | > 100 µM (inactive) | > 100 µM (inactive) | > 100 µM (inactive) | 86.9 µM (inactive) | > 100 µM (inactive) | > 100 µM (inactive) | > 100 µM (inactive) | > 100 µM (inactive) |
| CSc1nc2c(c(N3CCOCC3)n1)C(O)n1c(nc3ccccc31)S2 (stereo unspecified) | 36.6 µM (inactive) | > 100 µM (inactive) | 20.8 µM (inactive) | 17.5 µM (inactive) | > 100 µM (inactive) | > 100 µM (inactive) | 33.5 µM (inactive) | 3.8 µM (inactive) | 52.2 µM (inactive) | > 100 µM (inactive) | > 100 µM (inactive) | 77.8 µM (inactive) | 37.2 µM (inactive) | 53.6 µM (inactive) | 44.3 µM (inactive) | 67.8 µM (inactive) | 24.8 µM (inactive) | > 100 µM (inactive) | 29.7 µM (inactive) |
| Fc1ccc2c(c1)nc1n2C(c2c(F)cccc2F)SC1 (stereo unspecified) | > 100 µM (inactive) | 31.6 µM (inactive) | 57 µM (inactive) | 45.4 µM (inactive) | > 100 µM (inactive) | 52.7 µM (inactive) | 30 µM (inactive) | > 100 µM (inactive) | 55.1 µM (inactive) | 98.6 µM (inactive) | 45.5 µM (inactive) | 70.8 µM (inactive) | 51.6 µM (inactive) | 18.2 µM (inactive) | 66.7 µM (inactive) | 34 µM (inactive) | 30.1 µM (inactive) | 29.2 µM (inactive) | > 100 µM (inactive) |
| Cc1ccc2nc3[nH]nc(N)c3nc2c1 | 99.3 µM (inactive) | > 100 µM (inactive) | > 100 µM (inactive) | > 100 µM (inactive) | > 100 µM (inactive) | > 100 µM (inactive) | > 100 µM (inactive) | > 100 µM (inactive) | > 100 µM (inactive) | > 100 µM (inactive) | 44.2 µM (inactive) | > 100 µM (inactive) | 93.3 µM (inactive) | 54.6 µM (inactive) | > 100 µM (inactive) | > 100 µM (inactive) | > 100 µM (inactive) | 20.9 µM (inactive) | > 100 µM (inactive) |
| CC(C)(C)[Si](C)(C)OCC1CCC(n2cnc3c(=O)[nH]cnc32)O1 (stereo unspecified) | > 100 µM (inactive) | > 100 µM (inactive) | > 100 µM (inactive) | > 100 µM (inactive) | > 100 µM (inactive) | > 100 µM (inactive) | > 100 µM (inactive) | > 100 µM (inactive) | 78.9 µM (inactive) | > 100 µM (inactive) | 35.7 µM (inactive) | > 100 µM (inactive) | > 100 µM (inactive) | > 100 µM (inactive) | > 100 µM (inactive) | > 100 µM (inactive) | > 100 µM (inactive) | > 100 µM (inactive) | > 100 µM (inactive) |
| O=C(NC1CCN(Cc2ccccc2)CC1)c1cccc(I)c1 | 52.4 µM (inactive) | 19.5 µM (inactive) | 23 µM (inactive) | 35 µM (inactive) | 72.3 µM (inactive) | 16.4 µM (inactive) | 18.3 µM (inactive) | 22.8 µM (inactive) | 17.1 µM (inactive) | 30.3 µM (inactive) | 20.5 µM (inactive) | 60.5 µM (inactive) | 18.5 µM (inactive) | 16.5 µM (inactive) | 25.4 µM (inactive) | 24 µM (inactive) | 17.8 µM (inactive) | 45.2 µM (inactive) | 18.7 µM (inactive) |
